Measured values from US8697687B2, “Treating diseases mediated by blockade of the epithelial sodium channel with pyrazine-2-carboxamide derivatives” (Novartis AG, priority 2007, dated 2014).
Read-outs that look alike come from different tables or passages of the source.

Biological target: T1, epithelial sodium channel (ENaC) (Homo sapiens, UniProt P37088+P51168+P51170)
T1 construct: host or cells: primary Human Bronchial Epithelial cells (HBECs), air-liquid interface culture
T1 sequence (P37088 1-669): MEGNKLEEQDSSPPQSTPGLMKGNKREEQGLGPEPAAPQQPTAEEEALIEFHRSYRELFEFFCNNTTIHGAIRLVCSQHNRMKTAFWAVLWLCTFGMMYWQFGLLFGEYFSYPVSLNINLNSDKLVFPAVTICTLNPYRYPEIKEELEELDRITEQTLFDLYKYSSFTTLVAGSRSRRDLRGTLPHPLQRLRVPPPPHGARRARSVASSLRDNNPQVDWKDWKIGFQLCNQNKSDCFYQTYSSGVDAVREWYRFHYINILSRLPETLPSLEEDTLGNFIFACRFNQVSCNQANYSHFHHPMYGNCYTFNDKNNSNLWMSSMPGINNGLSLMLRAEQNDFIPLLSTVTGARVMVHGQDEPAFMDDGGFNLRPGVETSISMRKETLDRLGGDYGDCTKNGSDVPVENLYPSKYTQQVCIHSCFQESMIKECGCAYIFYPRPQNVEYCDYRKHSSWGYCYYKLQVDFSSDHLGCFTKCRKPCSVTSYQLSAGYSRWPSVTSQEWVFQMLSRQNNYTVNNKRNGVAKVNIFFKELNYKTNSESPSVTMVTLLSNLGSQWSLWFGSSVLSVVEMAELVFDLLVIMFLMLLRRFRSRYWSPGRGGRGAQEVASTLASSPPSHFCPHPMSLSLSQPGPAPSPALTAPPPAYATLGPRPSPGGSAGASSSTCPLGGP
T1 sequence (P51168 1-640): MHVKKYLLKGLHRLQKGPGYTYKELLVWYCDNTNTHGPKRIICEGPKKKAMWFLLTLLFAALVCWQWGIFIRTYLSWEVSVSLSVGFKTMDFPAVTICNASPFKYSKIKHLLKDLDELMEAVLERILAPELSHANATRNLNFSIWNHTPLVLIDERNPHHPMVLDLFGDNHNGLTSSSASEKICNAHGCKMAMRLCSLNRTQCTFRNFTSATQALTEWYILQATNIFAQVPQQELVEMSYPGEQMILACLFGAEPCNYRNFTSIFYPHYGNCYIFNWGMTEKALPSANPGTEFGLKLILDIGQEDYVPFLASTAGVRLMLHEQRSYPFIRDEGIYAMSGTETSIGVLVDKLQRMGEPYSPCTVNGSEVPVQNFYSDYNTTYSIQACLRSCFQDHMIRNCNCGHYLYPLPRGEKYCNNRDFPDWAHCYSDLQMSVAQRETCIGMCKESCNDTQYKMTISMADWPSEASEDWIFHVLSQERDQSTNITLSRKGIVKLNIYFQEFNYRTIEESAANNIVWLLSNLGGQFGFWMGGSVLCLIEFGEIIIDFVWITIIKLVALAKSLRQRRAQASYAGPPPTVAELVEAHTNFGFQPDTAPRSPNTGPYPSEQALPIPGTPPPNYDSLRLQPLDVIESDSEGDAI
T1 sequence (P51170 1-649): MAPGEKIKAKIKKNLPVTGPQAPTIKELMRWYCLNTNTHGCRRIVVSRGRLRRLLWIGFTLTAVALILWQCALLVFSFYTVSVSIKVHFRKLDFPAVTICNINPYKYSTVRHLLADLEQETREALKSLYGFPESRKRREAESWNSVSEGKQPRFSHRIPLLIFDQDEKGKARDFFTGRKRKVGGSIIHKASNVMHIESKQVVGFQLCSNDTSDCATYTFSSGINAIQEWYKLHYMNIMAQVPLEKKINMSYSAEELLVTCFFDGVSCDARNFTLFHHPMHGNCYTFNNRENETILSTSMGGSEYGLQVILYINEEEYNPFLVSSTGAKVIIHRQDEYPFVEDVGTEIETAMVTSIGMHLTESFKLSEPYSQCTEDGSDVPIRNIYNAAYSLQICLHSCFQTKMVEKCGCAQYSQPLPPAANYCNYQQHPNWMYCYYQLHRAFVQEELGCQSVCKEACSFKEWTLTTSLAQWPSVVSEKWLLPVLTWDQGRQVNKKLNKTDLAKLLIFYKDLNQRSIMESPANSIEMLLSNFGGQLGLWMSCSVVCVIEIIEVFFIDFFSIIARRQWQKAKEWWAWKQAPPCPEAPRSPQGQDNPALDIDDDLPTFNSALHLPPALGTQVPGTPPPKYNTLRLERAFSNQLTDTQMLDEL
Assay: Short circuit current (ISC) measurements in Human Bronchial Epithelial cells, inhibition of amiloride-sensitive ISC
Format: cell-based
Method in brief: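 Well-differentiated air-liquid interface HBECs (days 7–21) in Ussing chambers, Ringer pH 7.4, 37° C, voltage clamped at 0 mV. Cumulative 3-fold apical compound additions, then 10 μM amiloride to define total amiloride-sensitive ISC. IC50 from mean % inhibition, typically duplicate inserts.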

[1] = inhibition of the amiloride-sensitive ISC, Human Bronchial Epithelial cells (HBECs) at air-liquid interface, compound added to apical chamber, read-out: IC50

Row | IC50 [1] | Compound | IC50
1 | 74 nM | Nc1nc(N)c(C(=O)/N=C2\NCC3(CCN(C(=O)CCc4ccc(OCc5ccncc5)cc4)CC3)N2)nc1Cl [Example 70, 3,5-Diamino-6-chloro-pyrazine-2-carboxylic acid [8-{3-[4-(pyridin-4-ylmethoxy)-phenyl]-propionyl}-1,3,8-triaza-spiro[4.5]dec-(2E)-ylidene]-amide] | 
2 | 95 nM | Nc1nc(N)c(C(=O)/N=C2\NC[C@H](CCCNC(=O)Cc3ccccc3)N2)nc1Cl [Example 34, 3,5-Diamino-6-chloro-pyrazine-2-carboxylic acid [(S)-4-(3-phenylacetylamino-propyl)-imidazolidin-(2E)-ylidene]-amide] | 
3 | 29.5 nM | Nc1nc(N)c(C(=O)/N=C2\NCC3(CCN(C(=O)Cc4csc5ccccc45)CC3)N2)nc1Cl [Example 44, 3,5-Diamino-6-chloro-pyrazine-2-carboxylic acid [8-(2-Benzo[b]thiophen-3-yl-acetyl)-1,3,8-triaza-spiro[4.5]dec-(2E)-ylidene]-Amide] | 
4 |  | CC(C)(C)c1ccc(OCCn2ccc3c(C(=O)N4CCC5(CC4)CN/C(=N\C(=O)c4nc(Cl)c(N)nc4N)N5)cccc32)cc1 [Example 86, 3,5-Diamino-6-chloro-pyrazine-2-carboxylic acid [8-{1-[2-(4-tert-butyl-phenoxy)-ethyl]-1H-indole-4-carbonyl}-1,3,8-triaza-spiro[4.5]dec-(2E)-ylidene]-amide] | 8 nM

Row | Compound | IC50 [1] | IC50
5 | CC(C)COC1CCN(S(=O)(=O)c2cccc(C(=O)N3CCC4(CC3)CN/C(=N\C(=O)c3nc(Cl)c(N)nc3N)N4)c2)CC1 [Example 126, 3,5-Diamino-6-chloro-pyrazine-2-carboxylic acid [8-[3-(4-isobutoxy-piperidine-1-sulfonyl)-benzoyl]-1,3,8-triaza-spiro[4.5]dec-(2E)-ylidene]-amide] | 25 nM | 
